{"source": "paper PMC5974244", "about": "“Tumour-associated missense mutations in the dMi-2 ATPase alters nucleosome remodelling properties in a mutation-specific manner” (Nature Communications, 2018)", "key": {"[1]": {"target": "T1, dMi-2 (Drosophila melanogaster, UniProt O97159, H1198Y)", "T1 construct": "gene Mi-2; FLAG-tagged dMi-2 (no truncation stated), baculovirus / Sf9 cells, anti-FLAG purified, FLAG peptide elution", "T1 sequence (O97159 whole entry H1198Y, the tested form may be a part)": "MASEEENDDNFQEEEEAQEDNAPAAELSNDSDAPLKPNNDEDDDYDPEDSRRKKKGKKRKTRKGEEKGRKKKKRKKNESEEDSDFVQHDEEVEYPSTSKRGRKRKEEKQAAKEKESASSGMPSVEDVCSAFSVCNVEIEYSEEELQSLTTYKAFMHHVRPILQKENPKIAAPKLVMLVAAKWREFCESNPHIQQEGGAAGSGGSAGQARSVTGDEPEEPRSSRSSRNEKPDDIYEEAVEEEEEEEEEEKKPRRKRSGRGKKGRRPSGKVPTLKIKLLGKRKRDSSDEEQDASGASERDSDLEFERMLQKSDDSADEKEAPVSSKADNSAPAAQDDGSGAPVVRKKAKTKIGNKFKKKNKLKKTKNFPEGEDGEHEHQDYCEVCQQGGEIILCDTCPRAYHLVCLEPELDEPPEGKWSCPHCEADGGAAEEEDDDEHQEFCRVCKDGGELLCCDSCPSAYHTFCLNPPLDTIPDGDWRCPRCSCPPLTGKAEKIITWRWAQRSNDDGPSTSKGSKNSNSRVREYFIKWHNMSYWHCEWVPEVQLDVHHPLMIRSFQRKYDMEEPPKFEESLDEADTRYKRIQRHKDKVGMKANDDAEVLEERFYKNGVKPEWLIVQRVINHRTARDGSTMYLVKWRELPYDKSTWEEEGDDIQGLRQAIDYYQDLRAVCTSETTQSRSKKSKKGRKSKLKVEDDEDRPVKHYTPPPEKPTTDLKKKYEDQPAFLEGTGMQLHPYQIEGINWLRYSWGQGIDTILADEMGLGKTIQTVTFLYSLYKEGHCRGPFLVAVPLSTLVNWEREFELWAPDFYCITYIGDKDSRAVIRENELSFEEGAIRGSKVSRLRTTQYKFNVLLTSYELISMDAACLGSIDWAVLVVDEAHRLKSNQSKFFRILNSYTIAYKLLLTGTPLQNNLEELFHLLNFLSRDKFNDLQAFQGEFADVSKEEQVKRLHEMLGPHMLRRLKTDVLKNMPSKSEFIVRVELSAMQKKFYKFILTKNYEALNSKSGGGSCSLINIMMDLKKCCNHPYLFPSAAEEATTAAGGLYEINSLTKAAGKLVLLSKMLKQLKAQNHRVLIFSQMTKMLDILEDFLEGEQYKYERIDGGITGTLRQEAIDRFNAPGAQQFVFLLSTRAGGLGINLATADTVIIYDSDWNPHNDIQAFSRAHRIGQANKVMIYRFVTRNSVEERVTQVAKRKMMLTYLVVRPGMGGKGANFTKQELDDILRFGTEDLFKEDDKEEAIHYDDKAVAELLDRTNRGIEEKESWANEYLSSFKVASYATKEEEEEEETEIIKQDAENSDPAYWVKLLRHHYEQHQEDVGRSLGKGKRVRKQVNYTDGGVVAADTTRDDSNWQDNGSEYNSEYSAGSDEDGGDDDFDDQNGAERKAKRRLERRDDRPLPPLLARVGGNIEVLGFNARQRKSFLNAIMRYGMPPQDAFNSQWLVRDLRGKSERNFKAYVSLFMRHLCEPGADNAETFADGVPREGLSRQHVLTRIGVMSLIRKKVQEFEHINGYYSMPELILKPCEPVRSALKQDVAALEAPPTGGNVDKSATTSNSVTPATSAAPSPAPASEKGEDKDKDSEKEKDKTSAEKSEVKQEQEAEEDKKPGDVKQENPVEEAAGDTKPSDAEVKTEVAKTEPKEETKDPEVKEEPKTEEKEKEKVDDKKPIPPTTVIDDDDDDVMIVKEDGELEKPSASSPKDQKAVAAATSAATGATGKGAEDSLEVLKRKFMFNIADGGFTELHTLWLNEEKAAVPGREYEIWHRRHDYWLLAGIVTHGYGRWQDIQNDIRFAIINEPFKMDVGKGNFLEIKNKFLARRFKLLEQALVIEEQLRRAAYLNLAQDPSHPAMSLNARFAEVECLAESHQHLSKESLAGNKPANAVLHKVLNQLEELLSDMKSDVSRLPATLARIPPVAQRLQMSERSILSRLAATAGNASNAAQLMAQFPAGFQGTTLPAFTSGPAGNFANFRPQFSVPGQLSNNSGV", "experiment": "nitrocellulose filter binding with [gamma-32P]ATP", "conditions": "labelled compound; same 90 nM protein, 0.25 mM MgCl2, 26 °C; printed as H1196Y (human CHD4 numbering)"}, "[2]": {"target": "T2, dMi-2 (Drosophila melanogaster, UniProt O97159, V538F)", "T2 construct": "gene Mi-2; FLAG-tagged dMi-2 (no truncation stated), baculovirus / Sf9 cells, anti-FLAG purified, FLAG peptide elution", "T2 sequence (O97159 whole entry V538F, the tested form may be a part)": "as the sequence (O97159 whole entry H1198Y, the tested form may be a part) above, with V538F, Y1198H counted along it", "experiment": "nitrocellulose filter binding with [gamma-32P]ATP", "conditions": "labelled compound; same 90 nM protein, 0.25 mM MgCl2, 26 °C; printed as V558F (human CHD4 numbering)"}, "[3]": {"target": "T3, dMi-2 (Drosophila melanogaster, UniProt O97159)", "T3 construct": "gene Mi-2; FLAG-tagged dMi-2 (no truncation stated), baculovirus / Sf9 cells, anti-FLAG purified, FLAG peptide elution", "experiment": "nitrocellulose filter binding with [gamma-32P]ATP", "conditions": "labelled compound; 90 nM protein, 0.25 mM MgCl2, 100 mM KCl, 20 mM HEPES, 26 °C; competition by cold ATP"}, "[4]": {"target": "T4, dMi-2 (Drosophila melanogaster, UniProt O97159, C452Y)", "T4 construct": "gene Mi-2; FLAG-tagged dMi-2 (no truncation stated), baculovirus / Sf9 cells, anti-FLAG purified, FLAG peptide elution", "T4 sequence (O97159 whole entry C452Y, the tested form may be a part)": "as the sequence (O97159 whole entry H1198Y, the tested form may be a part) above, with C452Y, Y1198H counted along it", "experiment": "nitrocellulose filter binding with [gamma-32P]ATP", "conditions": "labelled compound; same 90 nM protein, 0.25 mM MgCl2, 26 °C; printed as C464Y (human CHD4 numbering)"}, "[5]": {"target": "T5, dMi-2 (Drosophila melanogaster, UniProt O97159, R552Q)", "T5 construct": "gene Mi-2; FLAG-tagged dMi-2 (no truncation stated), baculovirus / Sf9 cells, anti-FLAG purified, FLAG peptide elution", "T5 sequence (O97159 whole entry R552Q, the tested form may be a part)": "as the sequence (O97159 whole entry H1198Y, the tested form may be a part) above, with R552Q, Y1198H counted along it", "experiment": "nitrocellulose filter binding with [gamma-32P]ATP", "conditions": "labelled compound; same 90 nM protein, 0.25 mM MgCl2, 26 °C; printed as R572Q (human CHD4 numbering; also as R572Y in places, primer encodes Q)"}, "[6]": {"target": "T6, dMi-2 (Drosophila melanogaster, UniProt O97159, L914V)", "T6 construct": "gene Mi-2; FLAG-tagged dMi-2 (no truncation stated), baculovirus / Sf9 cells, anti-FLAG purified, FLAG peptide elution", "T6 sequence (O97159 whole entry L914V, the tested form may be a part)": "as the sequence (O97159 whole entry H1198Y, the tested form may be a part) above, with L914V, Y1198H counted along it", "experiment": "nitrocellulose filter binding with [gamma-32P]ATP", "conditions": "labelled compound; same 90 nM protein, 0.25 mM MgCl2, 26 °C; printed as L912V (human CHD4 numbering)"}, "[7]": {"target": "T7, dMi-2 (Drosophila melanogaster, UniProt O97159, H1153R)", "T7 construct": "gene Mi-2; FLAG-tagged dMi-2 (no truncation stated), baculovirus / Sf9 cells, anti-FLAG purified, FLAG peptide elution", "T7 sequence (O97159 whole entry H1153R, the tested form may be a part)": "as the sequence (O97159 whole entry H1198Y, the tested form may be a part) above, with H1153R, Y1198H counted along it", "experiment": "nitrocellulose filter binding with [gamma-32P]ATP", "conditions": "labelled compound; same 90 nM protein, 0.25 mM MgCl2, 26 °C; printed as H1151R (human CHD4 numbering)"}, "[8]": {"target": "T3, dMi-2", "experiment": "ATPase assay, TLC of [gamma-32P]ATP", "assay_type": "biochemical", "conditions": "labelled compound as tracer; 20 µM ATP, saturating polynucleosomes, 26 °C, 30 min"}, "[9]": {"target": "T8, dMi-2 (Drosophila melanogaster, UniProt O97159, R1164Q)", "T8 construct": "gene Mi-2; FLAG-tagged dMi-2 (no truncation stated), baculovirus / Sf9 cells, anti-FLAG purified, FLAG peptide elution", "T8 sequence (O97159 whole entry R1164Q, the tested form may be a part)": "as the sequence (O97159 whole entry H1198Y, the tested form may be a part) above, with R1164Q, Y1198H counted along it", "experiment": "nitrocellulose filter binding with [gamma-32P]ATP", "conditions": "labelled compound; same 90 nM protein, 0.25 mM MgCl2, 26 °C; printed as R1162Q (human CHD4 numbering)"}, "[10]": {"target": "T9, dMi-2 (Drosophila melanogaster, UniProt O97159, L1217P)", "T9 construct": "gene Mi-2; FLAG-tagged dMi-2 (no truncation stated), baculovirus / Sf9 cells, anti-FLAG purified, FLAG peptide elution", "T9 sequence (O97159 whole entry L1217P, the tested form may be a part)": "as the sequence (O97159 whole entry H1198Y, the tested form may be a part) above, with Y1198H, L1217P counted along it", "experiment": "nitrocellulose filter binding with [gamma-32P]ATP", "conditions": "labelled compound; same 90 nM protein, 0.25 mM MgCl2, 26 °C; printed as L1215P (human CHD4 numbering)"}}}
{"smiles": "Nc1ncnc2c1ncn2[C@@H]1O[C@H](COP(=O)(O)OP(=O)(O)OP(=O)(O)O)[C@@H](O)[C@H]1O", "note": "[ATP]", "values": [{"measurement": "% of WT ATP binding activity", "setting": "[1]", "value": "Most dMi-2 mutants displayed robust ATP binding activity"}, {"measurement": "% of WT ATP binding activity", "setting": "[2]", "value": "Most dMi-2 mutants displayed robust ATP binding activity"}, {"measurement": "nitrocellulose filter binding with [gamma-32P]ATP", "setting": "[3]", "value": "Binding of WT dMi-2 to radioactively labelled ATP was efficiently competed by an excess of"}, {"measurement": "% of WT ATP binding activity", "setting": "[4]", "value": "Most dMi-2 mutants displayed robust ATP binding activity"}, {"measurement": "% of WT binding activity", "setting": "[5]", "value": 32, "unit": "%"}, {"measurement": "% of WT ATP binding activity", "setting": "[6]", "value": "Most dMi-2 mutants displayed robust ATP binding activity"}, {"measurement": "% of WT ATP binding activity", "setting": "[7]", "value": "Most dMi-2 mutants displayed robust ATP binding activity"}, {"measurement": "ATPase assay, TLC of [gamma-32P]ATP", "setting": "[8]", "value": "We performed ATPase assays in the absence or presence of saturating amounts of salt dialysis-assembled"}, {"measurement": "% of WT ATP binding activity", "setting": "[9]", "value": "Most dMi-2 mutants displayed robust ATP binding activity"}, {"measurement": "% of WT ATP binding activity", "setting": "[10]", "value": "Most dMi-2 mutants displayed robust ATP binding activity"}]}
